Numbers after ± are expanded uncertainties.
Settings: Liquid, Bellows volumetry

CCC [propane]
mass density [kg/m3]
Settings | 280 K | 300 K | 320 K | 340 K | 360 K | 380 K | 400 K | 420 K | 440 K
1000 kPa | 520.5 ± 0.47 | 489.81 ± 0.44 | – | – | – | – | – | – | –
2000 kPa | 522.64 ± 0.47 | 492.87 ± 0.44 | 457.48 ± 0.41 | – | – | – | – | – | –
3000 kPa | 524.74 ± 0.47 | 495.95 ± 0.45 | 462.23 ± 0.42 | 418.14 ± 0.39 | – | – | – | – | –
5000 kPa | 528.56 ± 0.48 | 501.37 ± 0.45 | 470.53 ± 0.43 | 433.26 ± 0.4 | 380.9 ± 0.36 | – | – | – | –
10000 kPa | 537.44 ± 0.48 | 512.99 ± 0.46 | 486.59 ± 0.44 | 457.48 ± 0.42 | 424.08 ± 0.39 | 384.1 ± 0.36 | 334.74 ± 0.33 | – | –
20000 kPa | 551.94 ± 0.5 | 530.94 ± 0.48 | 509.27 ± 0.46 | 486.91 ± 0.44 | 463.3 ± 0.42 | 438.22 ± 0.41 | 411.69 ± 0.39 | 384.77 ± 0.36 | 357.43 ± 0.34
30000 kPa | 563.74 ± 0.51 | 544.91 ± 0.49 | 525.89 ± 0.47 | 506.87 ± 0.46 | 487.16 ± 0.44 | 466.67 ± 0.43 | 445.87 ± 0.41 | 425.47 ± 0.4 | 405.22 ± 0.38
40000 kPa | 573.78 ± 0.52 | 556.1 ± 0.5 | 539.36 ± 0.49 | 522.28 ± 0.47 | 505.03 ± 0.46 | 487.15 ± 0.45 | 469.1 ± 0.44 | 451.66 ± 0.43 | 434.68 ± 0.42
50000 kPa | 582.55 ± 0.53 | 566.32 ± 0.51 | 550.64 ± 0.5 | 534.97 ± 0.49 | 519.45 ± 0.47 | 503.08 ± 0.46 | 486.87 ± 0.45 | 471.39 ± 0.44 | 456.37 ± 0.43
60000 kPa | 590.49 ± 0.53 | 575.16 ± 0.52 | 560.7 ± 0.51 | 545.94 ± 0.5 | 531.56 ± 0.48 | 516.47 ± 0.47 | 501.44 ± 0.46 | 487.29 ± 0.45 | 473.51 ± 0.44
70000 kPa | 597.67 ± 0.54 | 583.22 ± 0.53 | 569.45 ± 0.52 | 555.7 ± 0.51 | 542.12 ± 0.49 | 527.94 ± 0.48 | 513.89 ± 0.47 | 500.74 ± 0.46 | 488.02 ± 0.46
80000 kPa | 604.54 ± 0.55 | 590.34 ± 0.53 | 577.41 ± 0.53 | 564.27 ± 0.51 | 551.67 ± 0.5 | 538.06 ± 0.49 | 524.67 ± 0.48 | 512.43 ± 0.47 | 500.46 ± 0.47
90000 kPa | 610.6 ± 0.55 | 597.08 ± 0.54 | 584.63 ± 0.53 | 572.21 ± 0.52 | 560.11 ± 0.51 | 547.06 ± 0.5 | 534.43 ± 0.49 | 522.77 ± 0.49 | 511.55 ± 0.48
100000 kPa | 616.37 ± 0.56 | 603.47 ± 0.55 | 591.38 ± 0.54 | 579.45 ± 0.53 | 568.02 ± 0.52 | 555.29 ± 0.51 | 543.41 ± 0.5 | 532.04 ± 0.49 | 521.4 ± 0.49
120000 kPa | 627.11 ± 0.59 | 614.69 ± 0.56 | 603.54 ± 0.57 | 592.54 ± 0.54 | 581.93 ± 0.53 | 570.05 ± 0.56 | 558.91 ± 0.51 | 548.04 ± 0.55 | 538.39 ± 0.55
140000 kPa | 636.51 ± 0.59 | 624.98 ± 0.59 | 614.39 ± 0.58 | 603.89 ± 0.58 | 593.99 ± 0.57 | 582.94 ± 0.57 | 572.19 ± 0.55 | 562.28 ± 0.55 | 553.07 ± 0.56
160000 kPa | 645.22 ± 0.6 | 634.04 ± 0.6 | 624.07 ± 0.59 | 614.28 ± 0.58 | 604.85 ± 0.58 | 594.15 ± 0.58 | 583.93 ± 0.56 | 574.66 ± 0.56 | 565.84 ± 0.56
180000 kPa | 653.38 ± 0.61 | 642.55 ± 0.58 | 632.92 ± 0.59 | 623.6 ± 0.57 | 614.61 ± 0.56 | 604.41 ± 0.55 | 594.64 ± 0.57 | 585.51 ± 0.54 | 577.32 ± 0.56
200000 kPa | 660.82 ± 0.6 | 650.24 ± 0.59 | 641.18 ± 0.58 | 632.17 ± 0.58 | 623.73 ± 0.57 | 613.68 ± 0.56 | 604.15 ± 0.55 | 595.61 ± 0.55 | 587.63 ± 0.54

— the NIST ThermoML archive (doi:10.1016/j.jct.2007.03.012)
